# Experimental data taken from patent US11780826B2 (Amgen Inc., priority 2017, dated 2023).
# System: Bovine cardiac myofibrils
# Test: In vitro model of dose-dependent myofibril ATPase modulation (AC1.4, pyruvate kinase/lactate dehydrogenase-coupled ATPase assay at pCa25)
# Format: biochemical
# Conditions: concentration at which ATPase activity was 1.4-fold higher than the bottom of the dose curve, mean of a minimum of two independent tests
# In short: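 We measure calcium-buffered ATPase activity of detergent-skinned bovine cardiac myofibrils at pH 6.80 and 22° C with 1 mM ATP, using a PK/LDH-coupled NADH readout at 340 nm. Values come from four-parameter dose-response fits, averaged over at least two independent runs.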
row,Compound,AC1.4
1,"COc1ccc(S(C)(=O)=O)cc1C(=O)N1[C@@H](C(=O)N[C@@H](c2ccc(C(F)(F)F)cc2)C2COC2)C[C@H]2C[C@H]21 [Example 808, (1R,3R,5R)-2-(2-methoxy-5-(methylsulfonyl)benzoyl)-N-((R)-3-oxetanyl(4-(trifluoromethyl)phenyl)methyl)-2-azabicyclo[3.1.0]hexane-3-carboxamide]",4.6765 µM
2,"CS(=O)(=O)c1cncc(C(=O)N2CCC[C@@H]2C(=O)NC(c2ccc(C(F)(F)F)cc2F)C2CC2)c1 (stereo partly drawn) [Example 809, (2R)-N-(cyclopropyl(2-fluoro-4-(trifluoromethyl)phenyl)methyl)-1-(5-(methylsulfonyl)nicotinoyl)pyrrolidine-2-carboxamide]",4.951 µM
3,"Cc1ccc([C@H](NC(=O)[C@H]2C[C@H]3C[C@H]3N2C(=O)c2cccc(S(C)(=O)=O)c2)C2CC2)cc1F [Example 810, (1R,3R,5R)-N-((R)-cyclopropyl(3-fluoro-4-methylphenyl)methyl)-2-(3-(methylsulfonyl)benzoyl)-2-azabicyclo[3.1.0]hexane-3-carboxamide]",5.084 µM
4,"N#CC1CN(S(=O)(=O)N2CCC[C@H](C(=O)N3CCC[C@@H]3C(=O)NCCc3ccc(C(F)(F)F)cc3)C2)C1 [Example 811, 1-(((3S)-1-((3-cyano-1-azetidinyl)sulfonyl)-3-piperidinyl)carbonyl)-N-(2-(4-(trifluoromethyl)phenyl)ethyl)-D-prolinamide]",8.7795 µM
5,"CS(=O)(=O)c1cccc(C(=O)N2[C@@H](C(=O)N[C@@H](c3cc(F)c(Cl)cc3F)C3(F)COC3)C[C@H]3C[C@H]32)c1 [Example 812, (1R,3R,5R)-N-((S)-(4-Chloro-2,5-difluorophenyl)(3-fluorooxetan-3-yl)methyl)-2-(3-(methylsulfonyl)benzoyl)-2-azabicyclo[3.1.0]hexane-3-carboxamide]",1.5766 µM
6,"CS(=O)(=O)c1ccc(N)c(C(=O)N2[C@@H](C(=O)N[C@@H](c3ccc(C(F)(F)F)cc3F)C3CC3)C[C@H]3C[C@H]32)c1 [Example 813, (1R,3R,5R)-2-(2-amino-5-(methylsulfonyl)benzoyl)-N-((R)-cyclopropyl(2-fluoro-4-(trifluoromethyl)phenyl)methyl)-2-azabicyclo[3.1.0]hexane-3-carboxamide]",0.7101 µM
7,"COc1cc(C(=O)N2[C@@H](C(=O)N[C@@H](c3cc(F)c(C(F)(F)F)cc3F)C3COC3)C[C@H]3C[C@H]32)ccn1 [Example 815, (1R,3R,5R)-N-((R)-(2,5-difluoro-4-(trifluoromethyl)phenyl)(oxetan-3-yl)methyl)-2-(2-methoxyisonicotinoyl)-2-azabicyclo[3.1.0]hexane-3-carboxamide]",2.4 µM
8,"CS(=O)(=O)c1cncc(C(=O)N2[C@@H](C(=O)N[C@@H](c3cc(F)c(Cl)cc3F)C(F)F)C[C@H]3C[C@H]32)c1 [Example 817, (1R,3R,5R)-N-((S)-1-(4-chloro-2,5-difluorophenyl)-2,2-difluoroethyl)-2-(5-(methylsulfonyl)nicotinoyl)-2-azabicyclo[3.1.0]hexane-3-carboxamide]",9.115 µM
9,"Cc1cnn(C)c1C(=O)N1[C@@H](C(=O)N[C@@H](c2cc(F)c(C(F)(F)F)cc2F)C2COC2)C[C@H]2C[C@H]21 [Example 818, (1R,3R,5R)-N-((R)-(2,5-difluoro-4-(trifluoromethyl)phenyl)(oxetan-3-yl)methyl)-2-(1,4-dimethyl-1H-pyrazole-5-carbonyl)-2-azabicyclo[3.1.0]hexane-3-carboxamide]",4.155 µM
10,"CC(C)(O)c1cccc(C(=O)N2[C@@H](C(=O)N[C@@H](c3cc(F)c(C(F)(F)F)cc3F)C3COC3)C[C@H]3C[C@H]32)c1 [Example 819, (1R,3R,5R)-N-((R)-(2,5-difluoro-4-(trifluoromethyl)phenyl)(oxetan-3-yl)methyl)-2-(3-(2-hydroxypropan-2-yl)benzoyl)-2-azabicyclo[3.1.0]hexane-3-carboxamide]",1.3468 µM
11,"Cc1cc(C(=O)N2[C@@H](C(=O)N[C@@H](c3cc(F)c(C(F)(F)F)cc3F)C3COC3)C[C@H]3C[C@H]32)c2[nH]ncc2c1 [Example 820, (1R,3R,5R)-N-((R)-(2,5-difluoro-4-(trifluoromethyl)phenyl)(oxetan-3-yl)methyl)-2-(5-methyl-1H-indazole-7-carbonyl)-2-azabicyclo[3.1.0]hexane-3-carboxamide]",0.9916 µM
12,"O=C(N[C@@H](c1cc(F)c(C(F)(F)F)cc1F)C1CC1)[C@H]1C[C@H]2C[C@H]2N1C(=O)c1cc(Cl)cc2cn[nH]c12 [Example 821, (1R,3R,5R)-2-(5-chloro-1H-indazole-7-carbonyl)-N-((R)-cyclopropyl(2,5-difluoro-4-(trifluoromethyl)phenyl)methyl)-2-azabicyclo[3.1.0]hexane-3-carboxamide]",1.2142 µM
13,"Cc1cc(C(=O)N2[C@@H](C(=O)N[C@@H](c3cc(F)c(C(F)(F)F)cc3F)C3CC3)C[C@H]3C[C@H]32)c(C(C)O)cn1 (stereo partly drawn) [Example 822, (1R,3R,5R)-N-((R)-cyclopropyl(2,5-difluoro-4-(trifluoromethyl)phenyl)methyl)-2-(5-(l-hydroxyethyl)-2-methylisonicotinoyl)-2-azabicyclo[3.1.0]hexane-3-carboxamide]",5.894 µM
14,"O=C(N[C@@H](c1cc(F)c(C(F)(F)F)cc1F)C1COC1)[C@H]1C[C@H]2C[C@H]2N1C(=O)c1cc(C(F)(F)F)on1 [Example 823, (1R,3R,5R)-N-((R)-(2,5-difluoro-4-(trifluoromethyl)phenyl)(oxetan-3-yl)methyl)-2-(5-(trifluoromethyl)isoxazole-3-carbonyl)-2-azabicyclo[3.1.0]hexane-3-carboxamide]",2.768 µM
15,"Cc1noc(C(=O)N2[C@@H](C(=O)N[C@@H](c3cc(F)c(C(F)(F)F)cc3F)C3COC3)C[C@H]3C[C@H]32)c1C [Example 824, (1R,3R,5R)-N-((R)-(2,5-difluoro-4-(trifluoromethyl)phenyl)(oxetan-3-yl)methyl)-2-(3,4-dimethylisoxazole-5-carbonyl)-2-azabicyclo[3.1.0]hexane-3-carboxamide]",8.874 µM
16,"Cc1noc(C)c1C(=O)N1[C@@H](C(=O)N[C@@H](c2cc(F)c(C(F)(F)F)cc2F)C2COC2)C[C@H]2C[C@H]21 [Example 825, (1R,3R,5R)-N-((R)-(2,5-difluoro-4-(trifluoromethyl)phenyl)(oxetan-3-yl)methyl)-2-(3,5-dimethylisoxazole-4-carbonyl)-2-azabicyclo[3.1.0]hexane-3-carboxamide]",9.3793 µM
17,"O=C(N[C@@H](c1cc(F)c(C(F)(F)F)cc1F)C1COC1)[C@H]1C[C@H]2C[C@H]2N1C(=O)c1cc(C(F)(F)F)no1 [Example 826, (1R,3R,5R)-N-((R)-(2,5-difluoro-4-(trifluoromethyl)phenyl)(oxetan-3-yl)methyl)-2-(3-(trifluoromethyl)isoxazole-5-carbonyl)-2-azabicyclo[3.1.0]hexane-3-carboxamide]",2.628 µM
18,"CS(=O)(=O)c1cccc(C(=O)N2CCC[C@@H]2C(=O)N[C@@H](c2cc(F)c(C(F)(F)F)cc2F)[C@H]2C[C@@H](O)C2)c1 [Example 827, (R)-N-((R)-(2,5-difluoro-4-(trifluoromethyl)phenyl)((1s,3S)-3-hydroxycyclobutyl)methyl)-1-(3-(methylsulfonyl)benzoyl)pyrrolidine-2-carboxamide]",0.15 µM
19,"CS(=O)(=O)c1cccc(C(=O)N2CCC[C@@H]2C(=O)N[C@@H](c2cc(F)c(C(F)(F)F)cc2F)[C@H]2C[C@H](O)C2)c1 [Example 828, (R)-N-((R)-(2,5-difluoro-4-(trifluoromethyl)phenyl)((lr,3R)-3-hydroxycyclobutyl)methyl)-1-(3-(methylsulfonyl)benzoyl)pyrrolidine-2-carboxamide]",0.1639 µM
20,"CC1(O)CC([C@@H](NC(=O)[C@H]2C[C@H]3C[C@H]3N2C(=O)c2cccc(S(C)(=O)=O)c2)c2cc(F)c(C(F)(F)F)cc2F)C1 (stereo partly drawn) [Example 829, (1R,3R,5R)-N-((R)-(2,5-difluoro-4-(trifluoromethyl)phenyl)(3-hydroxy-3-methylcyclobutyl)methyl)-2-(3-(methylsulfonyl)benzoyl)-2-azabicyclo[3.1.0]hexane-3-carboxamide]",1.702 µM
21,"O=C(N[C@@H](c1cc(F)c(C(F)(F)F)cc1F)[C@H]1C[C@H](O)C1)[C@H]1C[C@H]2C[C@H]2N1C(=O)c1ccnc(C(F)F)c1 [Example 831, (1R,3R,5R)-N-((R)-(2,5-difluoro-4-(trifluoromethyl)phenyl)((lr,3R)-3-hydroxycyclobutyl)methyl)-2-(2-(difluoromethyl)isonicotinoyl)-2-azabicyclo[3.1.0]hexane-3-carboxamide]",0.6115 µM
